Assay results as given in ChEMBL document CHEMBL1150544, “C-3-N-acyl analogs of 9(R)-dihydrotaxol: synthesis and structure activity relationships” (Bioorg Med Chem Lett, 1994).
Converted amounts (≈) assume the structure as drawn.

Assays:
HT-29 = experiment: In vitro cytotoxicity against HT29-human colon adenocarcinoma cells.; type: functional, cell-based
P388 = experiment: In vitro cytotoxicity against P388-mouse leukemia cells.; type: functional, cell-based
B16-F10 = experiment: In vitro cytotoxicity against B16F10-mouse melanoma cells.; type: functional, cell-based
[1] = Antitumor activity relative to taxol.; type: functional
A549 = experiment: In vitro cytotoxicity against A549-human lung carcinoma cells.; type: functional, cell-based

SMILES	IC50 (HT-29) [µg/mL]	IC50 (P388) [µg/mL]	IC50 (B16-F10) [µg/mL]	Ratio [1]	IC50 (A549) [µg/mL]
CC(=O)O[C@H]1C(=O)[C@@]2(C)[C@H]([C@H](OC(=O)c3ccccc3)[C@]3(O)C[C@H](OC(=O)[C@H](O)[C@@H](NC(=O)c4ccccc4)c4ccccc4)C(C)=C1C3(C)C)[C@]1(OC(C)=O)CO[C@@H]1C[C@@H]2O [PACLITAXEL]	0.0024 (≈ 0.00281 µM)	0.046 (≈ 0.0539 µM)	0.0041 (≈ 0.0048 µM)	–	–
CC(=O)O[C@@H]1C2=C(C)[C@@H](OC(=O)[C@H](O)[C@@H](NC(=O)OCC(C)(C)C)c3ccccc3)C[C@@](O)([C@@H](OC(=O)c3ccccc3)[C@@H]3[C@]4(OC(C)=O)CO[C@@H]4C[C@H](O)[C@@]3(C)[C@H]1O)C2(C)C	0.0015 (≈ 0.00173 µM)	0.019 (≈ 0.0219 µM)	0.0074 (≈ 0.00855 µM)	0.82	0.00065 (≈ 0.000751 µM)
CC(=O)O[C@@H]1C2=C(C)[C@@H](OC(=O)[C@H](O)[C@@H](NC(=O)OC34CC5CC(CC(C5)C3)C4)c3ccccc3)C[C@@](O)([C@@H](OC(=O)c3ccccc3)[C@@H]3[C@]4(OC(C)=O)CO[C@@H]4C[C@H](O)[C@@]3(C)[C@H]1O)C2(C)C	0.0028 (≈ 0.00301 µM)	0.01 (≈ 0.0108 µM)	0.0048 (≈ 0.00516 µM)	1.54	0.0043 (≈ 0.00462 µM)
CCOC(=O)N[C@@H](c1ccccc1)[C@@H](O)C(=O)O[C@H]1C[C@@]2(O)[C@@H](OC(=O)c3ccccc3)[C@@H]3[C@]4(OC(C)=O)CO[C@@H]4C[C@H](O)[C@@]3(C)[C@@H](O)[C@H](OC(C)=O)C(=C1C)C2(C)C	0.005 (≈ 0.00607 µM)	0.043 (≈ 0.0522 µM)	0.018 (≈ 0.0218 µM)	0.82	0.0057 (≈ 0.00692 µM)
CC(=O)O[C@@H]1C2=C(C)[C@@H](OC(=O)[C@H](O)[C@@H](NC(=O)OCc3ccccc3)c3ccccc3)C[C@@](O)([C@@H](OC(=O)c3ccccc3)[C@@H]3[C@]4(OC(C)=O)CO[C@@H]4C[C@H](O)[C@@]3(C)[C@H]1O)C2(C)C	0.012 (≈ 0.0135 µM)	0.057 (≈ 0.0643 µM)	0.044 (≈ 0.0497 µM)	–	0.031 (≈ 0.035 µM)
CC(=O)O[C@@H]1C2=C(C)[C@@H](OC(=O)[C@H](O)[C@@H](NC(=O)OCC(C)C)c3ccccc3)C[C@@](O)([C@@H](OC(=O)c3ccccc3)[C@@H]3[C@]4(OC(C)=O)CO[C@@H]4C[C@H](O)[C@@]3(C)[C@H]1O)C2(C)C	0.0023 (≈ 0.0027 µM)	0.028 (≈ 0.0329 µM)	0.0069 (≈ 0.0081 µM)	1.03	0.0043 (≈ 0.00505 µM)
CCC(C)(C)OC(=O)N[C@@H](c1ccccc1)[C@@H](O)C(=O)O[C@H]1C[C@@]2(O)[C@@H](OC(=O)c3ccccc3)[C@@H]3[C@]4(OC(C)=O)CO[C@@H]4C[C@H](O)[C@@]3(C)[C@@H](O)[C@H](OC(C)=O)C(=C1C)C2(C)C	0.00067 (≈ 0.000774 µM)	0.0046 (≈ 0.00531 µM)	0.0003 (≈ 0.000346 µM)	0.73	0.001 (≈ 0.00115 µM)
CC(=O)O[C@@H]1C2=C(C)[C@@H](OC(=O)[C@H](O)[C@@H](NC(=O)OC(C)C)c3ccccc3)C[C@@](O)([C@@H](OC(=O)c3ccccc3)[C@@H]3[C@]4(OC(C)=O)CO[C@@H]4C[C@H](O)[C@@]3(C)[C@H]1O)C2(C)C	0.0008 (≈ 0.000955 µM)	0.0092 (≈ 0.011 µM)	0.0022 (≈ 0.00263 µM)	0.75	0.0012 (≈ 0.00143 µM)
CC(=O)O[C@@H]1C2=C(C)[C@@H](OC(=O)[C@H](O)[C@@H](NC(=O)C(C)(C)C)c3ccccc3)C[C@@](O)([C@@H](OC(=O)c3ccccc3)[C@@H]3[C@]4(OC(C)=O)CO[C@@H]4C[C@H](O)[C@@]3(C)[C@H]1O)C2(C)C	< 0.01	0.083 (≈ 0.0993 µM)	0.035 (≈ 0.0419 µM)	2.36	0.11 (≈ 0.132 µM)
CC(=O)O[C@@H]1C2=C(C)[C@@H](OC(=O)[C@H](O)[C@@H](NC(=O)c3ccco3)c3ccccc3)C[C@@](O)([C@@H](OC(=O)c3ccccc3)[C@@H]3[C@]4(OC(C)=O)CO[C@@H]4C[C@H](O)[C@@]3(C)[C@H]1O)C2(C)C	0.0041 (≈ 0.00485 µM)	0.034 (≈ 0.0402 µM)	0.012 (≈ 0.0142 µM)	0.73	0.0072 (≈ 0.00851 µM)
CC(=O)N[C@@H](c1ccccc1)[C@@H](O)C(=O)O[C@H]1C[C@@]2(O)[C@@H](OC(=O)c3ccccc3)[C@@H]3[C@]4(OC(C)=O)CO[C@@H]4C[C@H](O)[C@@]3(C)[C@@H](O)[C@H](OC(C)=O)C(=C1C)C2(C)C	0.27 (≈ 0.34 µM)	2.02 (≈ 2.54 µM)	1.1 (≈ 1.39 µM)	3.17	2.1 (≈ 2.65 µM)
CC(=O)O[C@@H]1C2=C(C)[C@@H](OC(=O)[C@H](O)[C@@H](NC(=O)NC(C)(C)C)c3ccccc3)C[C@@](O)([C@@H](OC(=O)c3ccccc3)[C@@H]3[C@]4(OC(C)=O)CO[C@@H]4C[C@H](O)[C@@]3(C)[C@H]1O)C2(C)C	0.0056 (≈ 0.00658 µM)	0.017 (≈ 0.02 µM)	0.0046 (≈ 0.00541 µM)	1.06	0.014 (≈ 0.0165 µM)
CC(=O)O[C@@H]1C2=C(C)[C@@H](OC(=O)[C@H](O)[C@@H](NC(=O)OC(C)(C)C)c3ccccc3)C[C@@](O)([C@@H](OC(=O)c3ccccc3)[C@@H]3[C@]4(OC(C)=O)CO[C@@H]4C[C@H](O)[C@@]3(C)[C@H]1O)C2(C)C	–	–	–	0.87	0.0003 (≈ 0.000352 µM)
CC(=O)O[C@@H]1C2=C(C)[C@@H](OC(=O)[C@H](O)[C@@H](NC(=O)c3ccc(C)cc3)c3ccccc3)C[C@@](O)([C@@H](OC(=O)c3ccccc3)[C@@H]3[C@]4(OC(C)=O)CO[C@@H]4C[C@H](O)[C@@]3(C)[C@H]1O)C2(C)C	0.012 (≈ 0.0138 µM)	0.063 (≈ 0.0724 µM)	0.025 (≈ 0.0287 µM)	0.75	0.043 (≈ 0.0494 µM)
CC(=O)O[C@@H]1C2=C(C)[C@@H](OC(=O)[C@H](O)[C@@H](NC(=O)c3ccc(OCc4ccccc4)cc3)c3ccccc3)C[C@@](O)([C@@H](OC(=O)c3ccccc3)[C@@H]3[C@]4(OC(C)=O)CO[C@@H]4C[C@H](O)[C@@]3(C)[C@H]1O)C2(C)C	0.008 (≈ 0.00832 µM)	0.053 (≈ 0.0551 µM)	0.025 (≈ 0.026 µM)	0.76	0.019 (≈ 0.0197 µM)
CC(=O)O[C@@H]1C2=C(C)[C@@H](OC(=O)[C@H](O)[C@@H](NC(=O)c3ccc(O)cc3)c3ccccc3)C[C@@](O)([C@@H](OC(=O)c3ccccc3)[C@@H]3[C@]4(OC(C)=O)CO[C@@H]4C[C@H](O)[C@@]3(C)[C@H]1O)C2(C)C	0.067 (≈ 0.0768 µM)	> 0.1	> 0.1	1.07	> 0.1
CC(=O)O[C@@H]1C2=C(C)[C@@H](OC(=O)[C@H](O)[C@@H](NC(=O)CC(C)(C)C)c3ccccc3)C[C@@](O)([C@@H](OC(=O)c3ccccc3)[C@@H]3[C@]4(OC(C)=O)CO[C@@H]4C[C@H](O)[C@@]3(C)[C@H]1O)C2(C)C	0.009 (≈ 0.0106 µM)	0.052 (≈ 0.0612 µM)	0.0056 (≈ 0.00659 µM)	1.03	0.027 (≈ 0.0318 µM)
